Experimental data as given in patent publication US9592268B2, “Endothelium protective materials and methods of use” (CORNELL UNIVERSITY, priority 2011, dated 2017).
Values belong to the compound of their own block, whether it stands above or below them.

How the values were obtained:
[1] = biological target: T1, murine recombinant apoM (r-apoM) (Mus musculus, UniProt Q9Z1R3); assay: intrinsic fluorescence quenching of r-apoM by S1P; type: binding; conditions: r-apoM 0.7 μM; S1P 0-3.2 μmol/L; excitation 295 nm, emission 345 nm
T1 construct: A truncated mouse r-apoM containing the lipocalin domain but lacking the hydrophobic signal peptide was produced in Escherichia coli; made in house; host or cells: Escherichia coli
T1 sequence (Q9Z1R3 22-190): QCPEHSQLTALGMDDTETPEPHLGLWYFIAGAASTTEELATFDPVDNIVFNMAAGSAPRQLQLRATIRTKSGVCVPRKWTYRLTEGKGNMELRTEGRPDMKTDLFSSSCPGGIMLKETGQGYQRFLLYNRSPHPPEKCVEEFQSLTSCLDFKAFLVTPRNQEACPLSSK
Procedure: FIG. 3. […] A truncated mouse r-apoM containing the lipocalin domain but lacking the hydrophobic signal peptide was produced in Escherichia coli. The r-apoM (0.7 μM) was incubated with increasing concentrations of S1P (final concentration: 0-3.2 μmol/L). The intrinsic fluorescence of apoM was measured with excitation at 295 nm and emission at 345 nm. The data are mean±SEM (n=3).
Intrinsic fluorescence quenching was studied after addition of S1P to 0.7 μM murine recombinant apoM (r-apoM) (SEVVANA et al., J. Mol. Biol, 393:920-936 (2009)). Because it is possible that murine r-apoM binds and contains myristic acid in a manner similar to that of its human counterpart (SEVVANA et al., J. Mol. Biol, 393:920-936 (2009)), the binding data are reported as IC50 values. This approach also allows S1P binding to murine r-apoM to be compared directly with the previous data on human apoM-S1P binding.

recombinant human apoM = biological target: T2, recombinant human apoM (Homo sapiens, UniProt O95445); conditions: recombinant human apoM expressed in E. coli; SEVVANA et al. 2009; read-out: IC50 for displacement of myristic acid from apoM; cited from earlier work
T2 construct: host or cells: E. coli
T2 sequence (O95445 whole entry): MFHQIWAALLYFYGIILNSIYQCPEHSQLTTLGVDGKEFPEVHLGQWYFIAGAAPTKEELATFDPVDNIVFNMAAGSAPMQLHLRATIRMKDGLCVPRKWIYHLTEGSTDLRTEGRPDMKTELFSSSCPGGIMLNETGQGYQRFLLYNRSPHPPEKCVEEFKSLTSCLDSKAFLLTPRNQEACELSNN

HUVEC [2] = assay: HUVEC migration (chemotaxis chamber) assay; type: cell-based, human
Procedure: FIG. 4. ApoM-bound S1P activates S1P1-mediated intracellular signaling pathways and affects migration of HUVEC. (A) Confocal microscopy of HEK293 cells stably expressing S1P1-GFP. Cells were serum starved, stimulated for 1 h with indicated ligands, fixed and imaged. ApoM^+HDL (equivalent to ˜100 nM S1P as determined by LC/MS/MS) or ApoM^−HDL was used at 100 μg/ml. Fatty acid free BSA and r-apoM were complexed with S1P and used at the final concentration of 100 nM (equimolar for both protein and lipid). Scale bar, 20 μm. […] Activation of p44/42, and Akt was examined by western blot analysis using phospho-specific antibodies. (C) HUVEC were serum starved and pre-treated with 1 μM VPC44116 for 30 min where indicated and subjected to migration assay with 10 μg/ml apoM^+HDL (10 nM S1P) or 10 μg/ml apoM^−HDL or 10 nM albumin-S1P. Data are mean±SD, n=3. * p<0.01. (D) Microscopy of HUVEC that were serum starved and stimulated with 100 μg/ml apoM^+HDL, apoM^−HDL, 100 nM albumin-S1P, r-apoM-S1P or 100 nM S1P-free r-apoM for 1 h. […] Scale bar, 20 μm. […]
General Methods. […] Numerical differences were analyzed with two-tailed Student's t test.
Migration Assays. […] The filter was scanned, and the color density of each well was quantified using ImageJ software. […]

endogenous S1P1 receptor = assay: p44/42 and Akt activation in HUVEC (western blot, phospho-specific antibodies); type: cell-based, human; conditions: 1 μM VPC44116 pre-treatment 30 min
Procedure: (§1) FIG. 4. ApoM-bound S1P activates S1P1-mediated intracellular signaling pathways and affects migration of HUVEC. (A) Confocal microscopy of HEK293 cells stably expressing S1P1-GFP. Cells were serum starved, stimulated for 1 h with indicated ligands, fixed and imaged. ApoM^+HDL (equivalent to ˜100 nM S1P as determined by LC/MS/MS) or ApoM^−HDL was used at 100 μg/ml. Fatty acid free BSA and r-apoM were complexed with S1P and used at the final concentration of 100 nM (equimolar for both protein and lipid). Scale bar, 20 μm. […] Activation of p44/42, and Akt was examined by western blot analysis using phospho-specific antibodies. (C) HUVEC were serum starved and pre-treated with 1 μM VPC44116 for 30 min where indicated and subjected to migration assay with 10 μg/ml apoM^+HDL (10 nM S1P) or 10 μg/ml apoM^−HDL or 10 nM albumin-S1P. Data are mean±SD, n=3. * p<0.01. (D) Microscopy of HUVEC that were serum starved and stimulated with 100 μg/ml apoM^+HDL, apoM^−HDL, 100 nM albumin-S1P, r-apoM-S1P or 100 nM S1P-free r-apoM for 1 h. […] Scale bar, 20 μm. HUVEC were serum starved and stimulated for 5 min with 30 nM albumin-S1P, r-apoM-S1P, 10 μg/mL ApoM+ HDL, or 30 nM S1P-free r-apoM (E) or with increasing concentrations of albumin or r-apoM-S1P (F). […]
(§2) General Methods. […] Numerical differences were analyzed with two-tailed Student's t test. […]

S1P1 receptor = biological target: T3, S1P1 receptor (Homo sapiens, UniProt P21453); assay: S1P1 internalization in HEK293 cells stably expressing S1P1-GFP; type: cell-based; conditions: stimulated 1 h; HDL 100 μg/ml; S1P complexes 100 nM
T3 construct: expressed in transfected cells
T3 sequence (P21453 whole entry): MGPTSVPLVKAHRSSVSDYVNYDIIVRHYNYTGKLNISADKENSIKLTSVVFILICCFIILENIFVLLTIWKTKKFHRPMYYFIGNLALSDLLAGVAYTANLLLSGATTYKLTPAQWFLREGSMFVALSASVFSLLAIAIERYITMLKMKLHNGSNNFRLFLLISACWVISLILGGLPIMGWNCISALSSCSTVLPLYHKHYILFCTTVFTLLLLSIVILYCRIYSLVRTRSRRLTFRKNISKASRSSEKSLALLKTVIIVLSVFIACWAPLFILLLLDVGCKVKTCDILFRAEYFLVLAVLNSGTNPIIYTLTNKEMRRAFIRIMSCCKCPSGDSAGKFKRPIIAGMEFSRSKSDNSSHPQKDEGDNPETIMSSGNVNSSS
Procedure: as §1, §2

HUVEC [3] = assay: adherens junction assembly assay (VE-cadherin immunostaining) in HUVEC; type: cell-based, human; conditions: HUVEC stimulated 1 h; HDL 100 μg/ml; S1P complexes or r-apoM 100 nM
Procedure: as §1, with “(F). Activation of p44/42 and Akt was examined by Western blot analysis using phospho-specific antibodies.” for “(F).”

- quenching of intrinsic fluorescence of mouse r-apoM [1]: quenches the intrinsic fluorescence
Compound: CCCCCCCCCCCCC/C=C/[C@@H](O)[C@@H](N)COP(=O)(O)O [S1P, Sphingosine-1-phosphate]
- IC50 (recombinant human apoM): 0.9 µM

Compound: CCCCCCCCc1cccc(NC(=O)[C@H](N)CCP(=O)(O)O)c1 [VPC44116]
- effect of S1P1 antagonist pre-treatment on apoM+HDL-stimulated chemotaxis (HUVEC [2]; 1 μM VPC44116 for 30 min, 10 μg/ml apoM+HDL): abolished
- effect of S1P1 antagonist on apoM+HDL-induced p44/42 and Akt phosphorylation (endogenous S1P1 receptor): essentially abolished
- effect of S1P1 antagonist on cells stimulated by FCS (endogenous S1P1 receptor; FCS stimulation): no inhibitory effects

- internalization of GFP-S1P1 receptor (S1P1 receptor): robust internalization
Compound: albumin-bound S1P: S1P complexed with equi-molar fatty acid free bovine serum albumin, used as a positive control [reference compound]
- chemotaxis of HUVEC toward chemoattractant (HUVEC [2]; serum-starved HUVEC, 4 h at 37° C.): worked as chemoattractants in a concentration-dependent manner
- adherens junction and F-actin formation (HUVEC [3]): well-spread, contained F-actin and formed adherens junctions
